Holding throughout (format): cell-based
In assay [1] the test system is K. pneumoniae strain MP-548. In words: Broth dilution MIC determination (CLSI) against K. pneumoniae strain MP-548. The following applies: Klebsiella pneumoniae, MP548. An outline of the steps: (§1)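 MICs were determined by CLSI standard broth dilution. Values are binned: "+++" ≤4 mg/L, "++" ≥8 and <32 mg/L, "+" ≥32 mg/L.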
In general terms: Dilution methods test growth across graded concentrations, often in twofold steps.

A further assay has as its system E. coli strain MP-4. In words: Broth dilution MIC determination (CLSI) against E. coli strain MP-4. Particulars: Escherichia coli, MP4. Put shortly:
as §1

The next assay has as its system S. aureus strain MP-12. In words: Broth dilution MIC determination (CLSI) against S. aureus strain MP-12. The following applies: for MIC: Staphylococcus aureus, MP12, strain MP-12. An outline of the steps: as §1
Assay [2] concerns P. aeruginosa strain MP-3. In words: Broth dilution MIC determination (CLSI) against P. aeruginosa strain MP-3. Particulars: Pseudomonas aeruginosa, MP3. Put shortly: as §1
Assay [3] has as its system A. baumannii strain MP-15. In words: Broth dilution MIC determination (CLSI) against A. baumannii strain MP-15. The following applies: Acinetobacter baumannii, MP15. An outline of the steps: as §1

In brackets after ≈: the same amount, converted by molar mass.

The MIC is the lowest concentration found to suppress growth. On to `CC[C@H]1OC(=O)[C@@]2(C)CCO[C@](C)(C[C@@H](C)CN[C@H](C)[C@H]3NC(=O)O[C@@]31C)[C@H](O[C@@H]1O[C@H](CNCc3cccnc3)C[C@H](N(C)C)[C@H]1O)[C@@H](C)C2=O` [Compound 201], for which the MIC (in assay [1]; against E. coli strain MP-4; in the assay with S. aureus strain MP-12; in assay [2]; in assay [3]) was no less than 32 µg/mL in each case.
For `CC[C@H]1OC(=O)[C@@]2(C)CCO[C@](C)(C[C@@H](C)CN[C@H](C)[C@H]3NC(=O)O[C@@]31C)[C@H](O[C@@H]1O[C@H](CNC3CC3)C[C@H](N(C)C)[C@H]1O)[C@@H](C)C2=O` [Compound 202], the MIC is no more than 4 µg/mL in assay [1]; no more than 4 µg/mL with E. coli strain MP-4; no more than 4 µg/mL in the assay on S. aureus strain MP-12; no less than 32 µg/mL in assay [2]; 8 to 32 µg/mL (≈ 11.7 to 47 µM) in assay [3].
As for `CC[C@H]1OC(=O)[C@@]2(C)CCO[C@](C)(C[C@@H](C)CN[C@H](C)[C@H]3NC(=O)O[C@@]31C)[C@H](O[C@@H]1O[C@H](CNC34CC(C3)C4)C[C@H](N(C)C)[C@H]1O)[C@@H](C)C2=O` [Compound 204], the MIC in assay [1] is no more than 4 µg/mL; with E. coli strain MP-4, no more than 4 µg/mL; against S. aureus strain MP-12, no more than 4 µg/mL; in assay [2], no less than 32 µg/mL; in assay [3], 8 to 32 µg/mL (≈ 11.3 to 45.3 µM).
As to `CC[C@H]1OC(=O)[C@@]2(C)CCOC(C)(C[C@@H](C)CN[C@H](C)[C@H]3NC(=O)O[C@@]31C)[C@H](O[C@@H]1O[C@H](CNCC(F)(F)F)C[C@H](N(C)C)[C@H]1O)[C@@H](C)C2=O` [Compound 206], the MIC in assay [1] was 8 to 32 µg/mL (≈ 11.1 to 44.3 µM); with E. coli strain MP-4, no more than 4 µg/mL; in the assay on S. aureus strain MP-12, no more than 4 µg/mL; in assay [2], no less than 32 µg/mL; in assay [3], no less than 32 µg/mL.
For `CC[C@H]1OC(=O)[C@@]2(C)CCOC(C)(C[C@@H](C)CN(C)[C@H](C)[C@H]3NC(=O)O[C@@]31C)[C@H](O[C@@H]1O[C@H](CNC3CC3)C[C@H](N(C)C)[C@H]1O)[C@@H](C)C2=O` [Compound 208], the MIC in assay [1] was no more than 4 µg/mL; against E. coli strain MP-4, no more than 4 µg/mL; against S. aureus strain MP-12, no more than 4 µg/mL; in assay [2], no less than 32 µg/mL; in assay [3], 8 to 32 µg/mL (≈ 11.5 to 46 µM).
Regarding `CC[C@H]1OC(=O)[C@@]2(C)CCOC(C)(C[C@@H](C)CN(C)[C@H](C)[C@H]3NC(=O)O[C@@]31C)[C@H](O[C@@H]1O[C@H](CN(C)C3CC3)C[C@H](N(C)C)[C@H]1O)[C@@H](C)C2=O` [Compound 209], the MIC in assay [1] was no more than 4 µg/mL; in the assay with E. coli strain MP-4, no more than 4 µg/mL; against S. aureus strain MP-12, no more than 4 µg/mL; in assay [2], no less than 32 µg/mL; in assay [3], 8 to 32 µg/mL (≈ 11.3 to 45.1 µM).
Turning to `CC[C@H]1OC(=O)[C@@]2(C)CCOC(C)(C[C@@H](C)CN(C3CC3)[C@H](C)[C@H]3NC(=O)O[C@@]31C)[C@H](O[C@@H]1OC(C)CC(N(C)C)C1O)[C@@H](C)C2=O` (stereo partly drawn) [Compound 210], the MIC in assay [1] was no less than 32 µg/mL; in the assay with E. coli strain MP-4 it was 8 to 32 µg/mL (≈ 12 to 48.1 µM); in the assay on S. aureus strain MP-12, no more than 4 µg/mL; in assay [2] it was no less than 32 µg/mL; in assay [3] it was no less than 32 µg/mL.
As for `C=CC1CC(N(C)C)C(O)[C@H](O[C@@H]2[C@@H](C)C(=O)[C@]3(C)CCOC2(C)C[C@@H](C)CN[C@H](C)[C@H]2NC(=O)O[C@]2(C)[C@@H](CC)OC3=O)O1` (stereo partly drawn) [Compound 211], the MIC is no more than 4 µg/mL in assay [1]; no more than 4 µg/mL against E. coli strain MP-4; no more than 4 µg/mL in the assay with S. aureus strain MP-12; no less than 32 µg/mL in assay [2]; no more than 4 µg/mL in assay [3].
As for `CC[C@H]1OC(=O)[C@]2(C)CCOC(C)(C[C@@H](C)CN[C@H](C)[C@H]3NC(=O)O[C@@]31C)[C@H](O[C@@H]1O[C@H](CNC34CC(C3)C4)C[C@H](N(C)C)[C@H]1O)[C@@H](C)C2=O` [Compound 212], the MIC in assay [1] is 8 to 32 µg/mL (≈ 11.3 to 45.3 µM); against E. coli strain MP-4, no more than 4 µg/mL; in assay [2], no less than 32 µg/mL; in assay [3], 8 to 32 µg/mL (≈ 11.3 to 45.3 µM). For the same compound, the “MIC against S. aureus (MP-12)” value against S. aureus strain MP-12 (strain MP-12) is “+++ (values less than or equal to 4 mg/L)”.
